Experimental findings from ChEMBL document CHEMBL5052841, “Usp19 inhibitors for use in therapy” (2020) are described below.

This experiment deals with T1, Ubiquitin carboxyl-terminal hydrolase 19 (Homo sapiens, UniProt O94966).
T1 sequence (O94966 whole entry): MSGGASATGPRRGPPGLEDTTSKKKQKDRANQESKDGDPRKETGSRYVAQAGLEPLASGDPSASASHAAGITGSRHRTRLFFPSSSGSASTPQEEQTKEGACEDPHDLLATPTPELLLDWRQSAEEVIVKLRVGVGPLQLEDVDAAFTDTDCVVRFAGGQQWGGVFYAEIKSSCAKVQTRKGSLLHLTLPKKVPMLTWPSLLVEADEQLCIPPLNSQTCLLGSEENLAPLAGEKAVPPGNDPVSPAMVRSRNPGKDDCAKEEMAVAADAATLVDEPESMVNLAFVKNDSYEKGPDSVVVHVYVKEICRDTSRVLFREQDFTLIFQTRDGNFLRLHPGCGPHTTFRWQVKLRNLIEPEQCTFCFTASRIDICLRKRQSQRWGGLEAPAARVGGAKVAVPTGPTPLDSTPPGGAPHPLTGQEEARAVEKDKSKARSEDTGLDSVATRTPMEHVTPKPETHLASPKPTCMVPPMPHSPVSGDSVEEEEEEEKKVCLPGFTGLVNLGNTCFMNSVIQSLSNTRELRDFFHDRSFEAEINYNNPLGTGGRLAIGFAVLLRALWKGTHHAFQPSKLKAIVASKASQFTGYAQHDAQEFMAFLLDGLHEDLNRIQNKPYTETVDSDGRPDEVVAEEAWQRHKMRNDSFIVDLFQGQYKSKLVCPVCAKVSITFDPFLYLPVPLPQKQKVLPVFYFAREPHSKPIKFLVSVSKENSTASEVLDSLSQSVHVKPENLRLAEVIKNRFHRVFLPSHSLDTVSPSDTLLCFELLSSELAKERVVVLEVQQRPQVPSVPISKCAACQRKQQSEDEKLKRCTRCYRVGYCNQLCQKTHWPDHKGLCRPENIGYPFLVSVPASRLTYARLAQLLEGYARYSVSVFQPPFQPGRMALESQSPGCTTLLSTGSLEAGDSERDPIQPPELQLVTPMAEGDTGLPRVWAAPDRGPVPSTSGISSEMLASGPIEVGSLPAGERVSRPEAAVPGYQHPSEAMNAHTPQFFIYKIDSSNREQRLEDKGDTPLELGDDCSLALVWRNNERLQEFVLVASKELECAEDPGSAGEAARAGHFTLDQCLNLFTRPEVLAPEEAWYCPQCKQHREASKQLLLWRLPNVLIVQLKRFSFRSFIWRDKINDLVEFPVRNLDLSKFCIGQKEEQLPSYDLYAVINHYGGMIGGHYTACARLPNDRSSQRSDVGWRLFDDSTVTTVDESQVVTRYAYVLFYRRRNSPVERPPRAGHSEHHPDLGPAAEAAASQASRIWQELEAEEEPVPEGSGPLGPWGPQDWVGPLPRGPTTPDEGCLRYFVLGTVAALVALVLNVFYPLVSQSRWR
Put plainly: Inhibition of C-terminal His6-tagged recombinant human USP19 using iso-peptide ubiquitin-Lys-TAMRA as substrate incubated for 30 mins and measured after 90 mins by fluorescent polarization assay.
For orientation: IC50 means the concentration that gives 50% inhibition. For `C[C@H](CC1CCCCC1)C(=O)N1CCC(O)(Cn2cc(C(=O)N(C)C)c(-c3ccc(CO)cc3)cc2=O)C2(CCCC2)C1` (some centres undefined), the IC50 is below 500 nM.

`C[C@H](CC1CCC1)C(=O)N1CC[C@@](O)(Cn2cc(C(=O)N(C)C)c(-c3ccccc3F)cc2=O)C2(CCCC2)C1`: the IC50 was below 500 nM.

Turning to `C[C@H](CC1CCCCC1)C(=O)N1CCC(O)(Cn2cnc(-c3ccccc3CN)cc2=O)C(C)(C)C1` (some centres undefined), the IC50 was below 500 nM.

Turning to `C[C@H](CC1CCCCC1)C(=O)N1CCC(O)(Cn2cnc(-c3ccccc3F)cc2=O)C2(CCCC2)C1` (some centres undefined), the IC50 is below 500 nM.

`C[C@H](CC1CCCCC1)C(=O)N1CC[C@@](O)(Cn2cc(C(=O)N3CCC(O)CC3)c(-c3ccccc3)cc2=O)C(C)(C)C1`: the IC50 is below 500 nM.

Take `C[C@H](CC1CCCCC1)C(=O)N1CCC(O)(Cn2cc(C(=O)N3CCN(C)CC3)c(-c3ccccc3)cc2=O)C(C)(C)C1` (some centres undefined): the half-inhibitory concentration (IC50) was below 500 nM.

Regarding `CC(Cc1ccccc1)C(=O)N1CCC(O)(Cn2cnc(-c3ccccc3F)cc2=O)CC1` (racemic), the IC50 was at least 5000 nM.

Take `C[C@H](CC(F)(F)F)C(=O)N1CC[C@@](O)(Cn2cnc(-c3ccccc3F)cc2=O)C2(CCCC2)C1`: the IC50 is below 500 nM.

For `C[C@H](CC(F)(F)F)C(=O)N1CC[C@@](O)(Cn2cnc(-c3ccccc3)cc2=O)C2(CCCC2)C1`, the IC50 is below 500 nM.

Consider `C[C@H](CC1CCCCC1)C(=O)N1CC[C@@](O)(Cn2cc(C(=O)N3CCNCC3)c(-c3ccccc3)cc2=O)C(C)(C)C1`, for which the IC50 is below 500 nM.

In the case of `CC(C)N(C)C(=O)c1cn(C[C@]2(O)CCN(C(=O)[C@H](C)CC3CCCCC3)CC2(C)C)c(=O)cc1-c1ccccc1`, the IC50 was below 500 nM.

In the case of `CN(C)C(=O)c1cn(CC2(O)CCN(C(=O)[C@@H]3C[C@@H]3c3ccccc3)CC23CCCC3)c(=O)cc1-c1ccccc1` (some centres undefined), the IC50 is below 500 nM.

For the compound `C[C@H](CC1CCCCC1)C(=O)N1CCC(O)(Cn2cc(C(=O)N(C)C)c(N(C)C)cc2=O)C2(CCCC2)C1` (some centres undefined), the IC50 was below 500 nM.

Turning to `CC(OC1CCCCC1)C(=O)N1CCC(O)(Cn2cnc(-c3ccccc3F)cc2=O)C(C)(C)C1` (centres undefined), the IC50 is at least 50000 nM.

Consider `CC(C)N(C)C(=O)c1cn(CC2(O)CCN(C(=O)[C@H](C)CC3CCCCC3)CC2(C)C)c(=O)cc1-c1ccccc1` (some centres undefined), for which the IC50 was below 500 nM.

Turning to `O=C(C(F)CC1CCCCC1)N1CCC(O)(Cn2cnc(-c3ccccc3F)cc2=O)CC1` (racemic), the IC50 is at least 50000 nM.

`CC(C)CC(C)C(=O)N1CCC(O)(Cn2cc(C(=O)N(C)C)c(-c3ccccc3)cc2=O)C2(CCCC2)C1` (centres undefined): the IC50 is below 500 nM.

For the compound `O=C(C1CNCC1c1ccccc1)N1CC[C@@](O)(Cn2cnc(-c3ccccc3)cc2=O)C2(CCCC2)C1` (some centres undefined), the IC50 was below 500 nM.

Regarding `C[C@H](CC1CCCCC1)C(=O)N1CC[C@@](O)(Cn2cc(C(=O)O)c(-c3ccccc3)cc2=O)C2(CCCC2)C1`, the IC50 was below 500 nM.

Regarding `C[C@H](CC1CCCCC1)C(=O)N1CC[C@@](O)(Cn2cc(C(=O)N3CCCC3)c(-c3ccccc3)cc2=O)C(C)(C)C1`, the IC50 is below 500 nM.

For the compound `C[C@H](CC1CCCCC1)C(=O)N1CCC(O)(Cn2cc(C(=O)N(C)C)c(-c3ccsc3)cc2=O)C2(CCCC2)C1` (some centres undefined), the IC50 was below 500 nM.

Regarding `O=C(c1cn(C[C@]2(O)CCN(C(=O)C(CC(F)(F)F)CC(F)(F)F)CC23CCCC3)c(=O)cc1-c1ccccc1)N1CCNCC1`, the IC50 was at most 5000 nM.

Turning to `C[C@H](CC1CCCCC1)C(=O)N1CCC(O)(Cn2cc(C(=O)N(C)C)c(-c3cccc(CO)c3)cc2=O)C2(CCCC2)C1` (some centres undefined), the IC50 is below 500 nM.

In the case of `C[C@H](CC1CCCCC1)C(=O)N1CCC(O)(Cn2cc(C(=O)N(C)C)c(Cl)cc2=O)C2(CCCC2)C1` (some centres undefined), the IC50 is below 500 nM.

Turning to `C[C@H](CC1CCCCC1)C(=O)N1CCC(O)(Cn2cnc(-c3ccc(CO)cc3)cc2=O)C(C)(C)C1` (some centres undefined), the IC50 is below 500 nM.

Regarding `C[C@H](CC1CCCCC1)C(=O)N1CC[C@@](O)(Cn2cc(C(=O)N(C)C)c(-c3ccccc3F)cc2=O)C(C)(C)C1`, the half-inhibitory concentration (IC50) was below 500 nM.

Turning to `CCOC(=O)c1cn(C[C@]2(O)CCN(C(=O)[C@H](C)CC3CCCCC3)CC23CCCC3)c(=O)cc1-c1ccccc1`, the IC50 was below 500 nM.

Regarding `C[C@@H]1CN(C(=O)c2cn(C[C@]3(O)CCN(C(=O)[C@H](C)CC4CCCCC4)CC3(C)C)c(=O)cc2-c2ccccc2)CCN1`, the IC50 was below 500 nM.

Regarding `C[C@H](CC1CCCCC1)C(=O)N1CC[C@@](O)(Cn2cc(C(=O)N(C)C)c(-c3ccccc3)cc2=O)C2(CCCC2)C1`, the IC50 is below 500 nM.

With `C[C@H](CC1CC1)C(=O)N1CCC(O)(Cn2cc(C(=O)N(C)C)c(-c3ccccc3)cc2=O)C2(CCCC2)C1` (some centres undefined), the IC50 is below 500 nM.

As for `CN(C)C(=O)c1cn(CC2(O)CCN(C(=O)c3c[nH]nc3-c3ccccc3)CC23CCCC3)c(=O)cc1-c1ccccc1` (centres undefined), the IC50 is at most 5000 nM.

Regarding `C[C@H](CC1CCCCC1)C(=O)N1CCC(O)(Cn2cnc(-c3cccc(CO)c3)cc2=O)C(C)(C)C1` (some centres undefined), the IC50 was below 500 nM.

`CC(=O)N1CCN(C(=O)c2cn(CC3(O)CCN(C(=O)[C@H](C)CC4CCCCC4)CC3(C)C)c(=O)cc2-c2ccccc2)CC1` (some centres undefined): the IC50 is below 500 nM.

As for `C[C@H](CC(C)(F)F)C(=O)N1CC[C@@](O)(Cn2cnc(-c3ccccc3)cc2=O)C2(CCCC2)C1`, the IC50 was below 500 nM.

Regarding `O=C([C@@H]1CCNC[C@H]1c1ccccc1)N1CCC(O)(Cn2cnc(-c3ccccc3)cc2=O)C2(CCCC2)C1` (some centres undefined), the IC50 is below 500 nM.

As for `C[C@H](CC1CCCCC1)C(=O)N1CC[C@@](O)(Cn2cc(C(=O)N3CCNCC3)c(C3CC3)cc2=O)C2(CCCC2)C1`, the IC50 is below 500 nM.

In the case of `CN(C)C(=O)c1cn(CC2(O)CCN(C(=O)C(O)CC3CCCCC3)CC23CCCC3)c(=O)cc1-c1ccccc1` (centres undefined), the IC50 is below 500 nM.

On to `C[C@H](CC(F)(F)F)C(=O)N1CC[C@@](O)(Cn2cc(C(=O)N3CCN(C)CC3)c(-c3ccccc3)cc2=O)C2(CCCC2)C1`, for which the IC50 is below 500 nM.

Consider `C[C@H](CC1CCCCC1)C(=O)N1CC[C@@](O)(Cn2cc(C(=O)N3CCNCC3)c(-c3ccccc3F)cc2=O)C(C)(C)C1`, for which the IC50 was below 500 nM.

In the case of `O=C(CCC1CCCC1)N1CCC(O)(Cn2cnc(-c3ccccc3F)cc2=O)CC1`, the IC50 is at least 50000 nM.

As for `C[C@H](CC1CCC1)C(=O)N1CC[C@@](O)(Cn2cc(C(=O)N3CCNCC3)c(-c3ccccc3)cc2=O)C2(CCCC2)C1`, the IC50 was below 500 nM.

For the compound `CC(CN1CCCCC1)C(=O)N1CCC(O)(Cn2cc(C(=O)N(C)C)c(-c3ccccc3)cc2=O)C2(CCCC2)C1` (centres undefined), the IC50 was at least 5000 nM.

Take `C[C@H](CC1CCCCC1)C(=O)N1CC[C@@](O)(Cn2cc(C(=O)N(C)C)c(-c3ccccc3F)cc2=O)C2(CCCC2)C1`: the IC50 was below 500 nM.

As to `C[C@H](CC1CCCCC1)C(=O)N1CCC(O)(Cn2cc(C(=O)N3CCOCC3)c(-c3ccccc3)cc2=O)C(C)(C)C1` (some centres undefined), the IC50 is below 500 nM.

As for `CC(n1cnc(-c2ccccc2)cc1=O)C1(O)CCN(C(=O)[C@H](C)CC2CCCCC2)CC1` (some centres undefined), the IC50 was at most 5000 nM.

Consider `C[C@H](CC1CCC1)C(=O)N1CC[C@@](O)(Cn2cc(C(=O)N(C)C)c(-c3ccccc3)cc2=O)C2(CCCC2)C1`, for which the IC50 was below 500 nM.

Take `C[C@H](CC1CCCCC1)C(=O)N1CCC(O)(Cn2cc(C(=O)N(C)C)c(-c3ccccc3)cc2=O)C2(CCCCC2)C1` (some centres undefined): the IC50 was below 500 nM.

For `C[C@H](CC1CCCCC1)C(=O)N1CCC(O)(Cn2cc(C(=O)N3CCNCC3)c(-c3ccccc3)cc2=O)C2(CCCCC2)C1` (some centres undefined), the IC50 is below 500 nM.

`C[C@H](CC1CCC1)C(=O)N1CC[C@@](O)(Cn2cc(C(=O)N3CCNCC3)c(-c3ccccc3F)cc2=O)C2(CCCC2)C1`: the IC50 is below 500 nM.
